Measurements taken from ChEMBL document CHEMBL5046234, “Discovery of novel TrkA allosteric inhibitors: Structure-based virtual screening, biological evaluation and preliminary SAR studies” (Eur J Med Chem, 2022).
Each block holds one compound with its values, some of them ahead of it.

Experiments:
[1] = molecular target: BDNF/NT-3 growth factors receptor (Homo sapiens, UniProt Q16620); assay: Inhibition of TRKB (unknown origin) by PathHunter Enzyme Fragment Complementation assay
BaF3 [2] = assay: Antiproliferative activity against mouse BaF3 cells expressing CD74 fused TRKA assessed as cell growth inhibition incubated for 72 hrs by CCK8 assay; assay type: functional, cell-based; details: BaF3, 72 h
BaF3 [3] = assay: Antiproliferative activity against mouse BaF3 cells expressing QKI fused TRKB assessed as cell growth inhibition incubated for 72 hrs by CCK8 assay; assay type: functional, cell-based; details: BaF3, 72 h
BaF3 [4] = assay: Antiproliferative activity against mouse BaF3 cells assessed as cell growth inhibition incubated for 72 hrs by CCK8 assay; assay type: functional, cell-based; details: BaF3, 72 h
[5] = molecular target: High affinity nerve growth factor receptor (Homo sapiens) (UniProt P04629); assay: Inhibition of CD74 fused TRKA (unknown origin) expressed in mouse BaF3 cells assessed as inhibition of AKT phosphorylation by western blot analysis; assay type: cell-based; details: dose 0.08-50 µM
[6] = molecular target: High affinity nerve growth factor receptor (Homo sapiens) (UniProt P04629); assay: Inhibition of CD74 fused TRKA (unknown origin) expressed in mouse BaF3 cells assessed as inhibition of PLCgamma1 phosphorylation by western blot analysis; assay type: cell-based; details: dose 0.08-50 µM
BaF3 [7] = assay: Antiproliferative activity against mouse BaF3 cells expressing EML4 fused TRKC assessed as cell growth inhibition incubated for 72 hrs by CCK8 assay; assay type: functional, cell-based; details: BaF3, 72 h
BaF3 [8] = assay: Antiproliferative activity against mouse BaF3 cells expressing MPRIP fused TRKA assessed as cell growth inhibition incubated for 72 hrs by CCK8 assay; assay type: functional, cell-based; details: BaF3, 72 h
[9] = molecular target: High affinity nerve growth factor receptor (Homo sapiens) (UniProt P04629); assay: Inhibition of CD74 fused TRKA (unknown origin) autophosphorylation expressed in mouse BaF3 cells by western blot analysis; assay type: cell-based; details: dose 0.08-50 µM
[10] = molecular target: High affinity nerve growth factor receptor (Homo sapiens) (UniProt P04629); assay: Inhibition of CD74 fused TRKA (unknown origin) expressed in mouse BaF3 cells assessed as inhibition of ERK phosphorylation by western blot analysis; assay type: cell-based

High affinity nerve growth factor receptor (Homo sapiens), sequence (P04629 33-796 limits assumed): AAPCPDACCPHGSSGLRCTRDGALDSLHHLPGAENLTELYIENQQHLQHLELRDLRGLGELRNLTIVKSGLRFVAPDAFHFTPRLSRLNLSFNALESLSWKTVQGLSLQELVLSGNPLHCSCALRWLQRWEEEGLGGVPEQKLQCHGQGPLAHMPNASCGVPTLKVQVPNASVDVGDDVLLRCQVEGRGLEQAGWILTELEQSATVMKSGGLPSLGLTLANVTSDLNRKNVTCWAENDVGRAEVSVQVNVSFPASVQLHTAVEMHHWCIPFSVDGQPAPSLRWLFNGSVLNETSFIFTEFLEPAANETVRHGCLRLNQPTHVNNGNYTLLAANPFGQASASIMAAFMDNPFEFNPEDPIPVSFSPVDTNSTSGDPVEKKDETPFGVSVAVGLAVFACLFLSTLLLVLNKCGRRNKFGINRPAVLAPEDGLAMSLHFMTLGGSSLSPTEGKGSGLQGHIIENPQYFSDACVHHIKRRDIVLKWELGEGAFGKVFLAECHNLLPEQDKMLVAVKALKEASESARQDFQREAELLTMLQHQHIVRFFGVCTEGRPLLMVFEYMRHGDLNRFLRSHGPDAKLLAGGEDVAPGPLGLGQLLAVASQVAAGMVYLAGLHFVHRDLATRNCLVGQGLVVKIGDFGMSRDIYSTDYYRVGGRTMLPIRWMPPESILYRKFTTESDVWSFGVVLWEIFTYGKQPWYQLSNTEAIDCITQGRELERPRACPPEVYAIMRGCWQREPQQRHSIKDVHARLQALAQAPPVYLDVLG
BDNF/NT-3 growth factors receptor, sequence (Q16620 whole entry, the tested form may be a part): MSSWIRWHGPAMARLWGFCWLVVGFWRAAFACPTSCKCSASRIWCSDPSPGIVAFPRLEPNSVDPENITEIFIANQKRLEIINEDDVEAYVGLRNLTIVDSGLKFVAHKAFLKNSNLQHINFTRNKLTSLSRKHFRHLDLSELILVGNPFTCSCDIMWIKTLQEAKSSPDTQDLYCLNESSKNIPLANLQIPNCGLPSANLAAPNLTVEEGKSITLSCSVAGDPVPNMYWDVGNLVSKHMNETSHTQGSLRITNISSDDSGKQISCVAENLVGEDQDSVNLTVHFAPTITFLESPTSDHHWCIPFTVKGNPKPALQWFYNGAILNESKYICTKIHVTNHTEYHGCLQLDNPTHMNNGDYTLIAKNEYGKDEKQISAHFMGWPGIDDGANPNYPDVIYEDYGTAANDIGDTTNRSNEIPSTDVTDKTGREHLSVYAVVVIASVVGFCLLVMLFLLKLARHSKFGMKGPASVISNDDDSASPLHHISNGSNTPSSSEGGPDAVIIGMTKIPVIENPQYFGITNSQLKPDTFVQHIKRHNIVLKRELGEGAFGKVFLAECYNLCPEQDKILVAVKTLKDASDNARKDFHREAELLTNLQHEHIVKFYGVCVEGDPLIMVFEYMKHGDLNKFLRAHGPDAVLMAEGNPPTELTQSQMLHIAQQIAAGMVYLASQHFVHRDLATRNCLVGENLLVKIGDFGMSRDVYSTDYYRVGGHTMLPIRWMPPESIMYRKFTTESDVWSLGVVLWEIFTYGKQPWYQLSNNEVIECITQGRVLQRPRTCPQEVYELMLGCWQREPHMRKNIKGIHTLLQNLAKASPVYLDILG

IC50 [1]: 81 µM
Structure (SMILES): Cc1ncc(NC(=O)NC2c3ccccc3-c3ccccc32)c(-c2ccccc2)n1

IC50 (BaF3 [2]): > 10 µM
Structure (SMILES): CN1CCN(c2cc(-c3ccccc3)c(NC(=O)c3cc(N4CCCC4=O)c(Cl)cc3Cl)cn2)CC1

IC50 (BaF3 [3]): 6.17 µM
IC50 (BaF3 [2]): 2.91 µM
IC50 (BaF3 [4]): > 10 µM
inhibition [5]: Dose-Dependent Effect
inhibition [6]: Dose-Dependent Effect
IC50 (BaF3 [7]): > 10 µM
IC50 (BaF3 [8]): 3.32 µM
inhibition [9]: Dose-Dependent Effect
inhibition [10]: Dose-Dependent Effect
Structure (SMILES): Cc1ccc(C(=O)Nc2ccc(N3CCN(C4CCCC4)C3=O)nc2)cc1N1CCCC1=O

IC50 (BaF3 [2]): 1.83 µM
Structure (SMILES): CN1CCN(c2ccc(NC(=O)c3cc(N4CCCC4=O)c(Cl)cc3Cl)cn2)CC1

IC50 (BaF3 [2]): 1.99 µM
Structure (SMILES): Cc1ccc(C(=O)Nc2ccc(N3CCN(C)CC3)nc2)cc1N1CCCC1=O

IC50 (BaF3 [2]): 7.23 µM
Structure (SMILES): Cc1ccc(C(=O)Nc2ccc(N3CCCC3=O)nc2)cc1N1CCCC1=O

IC50 (BaF3 [2]): 1.55 µM
Structure (SMILES): CN1CCN(c2ccc(NC(=O)c3ccc(Cl)c(N4CCCC4=O)c3)cn2)CC1
